The results in this text go back to patent US5422359A, “α-aminoketone derivatives” (Mitsubishi Kasei Corporation, priority 1992, dated 1995).

This experiment deals with T1, m-calpain (Rattus norvegicus, UniProt Q07009).
T1 construct: m-calpain was purified from a brain of rat; from tissue; host or cells: rat brain
T1 sequence (Q07009 20-700 limits assumed): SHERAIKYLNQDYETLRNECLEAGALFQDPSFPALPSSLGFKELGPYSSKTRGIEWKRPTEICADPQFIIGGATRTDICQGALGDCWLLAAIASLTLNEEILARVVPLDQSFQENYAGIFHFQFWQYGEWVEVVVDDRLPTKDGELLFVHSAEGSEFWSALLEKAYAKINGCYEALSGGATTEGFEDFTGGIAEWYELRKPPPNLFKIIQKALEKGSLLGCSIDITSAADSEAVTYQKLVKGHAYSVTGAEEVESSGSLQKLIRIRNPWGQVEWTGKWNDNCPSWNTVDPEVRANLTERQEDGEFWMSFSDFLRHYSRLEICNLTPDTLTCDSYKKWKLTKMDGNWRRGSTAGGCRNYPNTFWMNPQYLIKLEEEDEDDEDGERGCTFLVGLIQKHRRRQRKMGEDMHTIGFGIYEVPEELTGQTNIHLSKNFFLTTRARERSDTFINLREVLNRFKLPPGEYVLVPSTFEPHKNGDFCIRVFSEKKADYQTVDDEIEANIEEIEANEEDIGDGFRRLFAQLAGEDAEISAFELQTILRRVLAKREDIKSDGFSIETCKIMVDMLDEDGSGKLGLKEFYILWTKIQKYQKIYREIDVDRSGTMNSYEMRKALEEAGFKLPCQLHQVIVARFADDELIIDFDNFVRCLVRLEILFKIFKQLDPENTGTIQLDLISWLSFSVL
T1 sequence (Q64537 1-270 partner): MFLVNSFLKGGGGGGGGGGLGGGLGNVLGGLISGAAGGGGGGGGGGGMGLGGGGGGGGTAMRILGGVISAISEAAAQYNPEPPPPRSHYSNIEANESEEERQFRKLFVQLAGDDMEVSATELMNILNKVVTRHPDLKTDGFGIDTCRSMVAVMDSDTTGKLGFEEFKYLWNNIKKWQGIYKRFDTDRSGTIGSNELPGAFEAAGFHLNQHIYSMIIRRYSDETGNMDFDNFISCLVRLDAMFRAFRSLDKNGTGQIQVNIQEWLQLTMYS
Put plainly: Measurement of inhibitory activity against calpain. The experiment is classed as biochemical. The conditions noted are these: m-calpain purified from a brain of rat; read-out: 50% inhibitory concentration (IC50). Here is the method: Measurement of Inhibitory Activity against Calpain
Through the known method disclosed in Journal of Biological Chemistry, vol. 259, p.3210, (1984), m-calpain was purified from a brain of rat. The inhibitory activity against it was measured and determined according to the method disclosed in Journal of Biological Chemistry, vol. 259, p.12489 […].

pIC50: −log10 of the molar value.

With `CCCC[C@H](NC(=O)[C@H](CC(C)C)NC(=O)OCc1ccccc1)C(=O)CCCc1ccco1` [Example 5], the pIC50 was 5.00.
